Laboratory results from patent publication US20190008878A1, “COMPOSITIONS AND METHOD FOR REDUCING CARDIOTOXICITY” (SignPath Pharma Inc., priority 2017, published 2019).
Entries after “also recorded” stand apart in the source; their conditions may differ.

Key:
HEK293 cells = conditions: 20 μM, 24 h incubation; cited from earlier work
[1] = chronic sunitinib cardiotoxicity study, two 28-day cycles with or without the invention (ECG, echocardiography, arterial pressure, body weight, troponin); assay type: in vivo, Hartley guinea pigs; conditions: for left ventricular / cardiac hypertrophy (cardiac weight): after 86 days (2 cycles) of treatment
[2] = Langendorff retrograde perfusion of hearts taken on Day 86 (left ventricle contractility and kinetics); design: species or system Hartley guinea pigs; conditions: Day 86, ex vivo Langendorff
Protocol: In FIG. 5B, on Day 86, the animals were euthanized and the hearts mounted onto a Langendorff retrograde perfusion system. A left ventricular pressure transducer was inserted into the left ventricle and recorded LV contraction amplitude and kinetics.
In FIG. 6, the pressure developed by the heart on Day 86 of treatment was measured ex-vivo in a Langendorff retrograde perfusion system.

Row | end-systolic / developed left ventricular pressure [2] | rate of contraction of the LV ([2]; LV pressure transducer) | SMILES | HEK293 cell viability (HEK293 cells) | mean arterial blood pressure ([1]; Day 86, invasive femoral artery catheter, anesthetized animals, sunitinib alone compared with sunitinib plus the invention) | left ventricular / cardiac hypertrophy (cardiac weight) [1] | left ventricular / cardiac hypertrophy (cardiac weight) ([1]; listed as Sunitinib) | QTc prolongation ([1]; as of Day 28, increasing steadily until Day 86, sunitinib 10 mg/kg/day, Bazett correction, n=6 per group) [ms] | Troponin I levels ([1]; blood, sunitinib alone compared with sunitinib plus the invention) | LV ejection velocity at the aortic valve (AoVMax) ([1]; cardiac echography, over the treatment) | left ventricular distension (end of diastole and end of systole) ([1]; echocardiography, over the treatment) | left ventricular distension (end of diastole and end of systole) ([1]; echocardiography, over the treatment, listed as Sunitinib) | left-ventricular fractional shortening ([1]; echocardiography, difference between groups significant after 86 days) | Troponin levels compared with intact animals ([1]; intact animals 0.05 ng/mL (data not shown))
1 | – | – | COc1cc(/C=C/C(=O)CC(=O)/C=C/c2ccc(O)c(OC)c2)ccc1O [curcumin] | reduced | – | – | – | – | – | – | – | – | – | –
2 | significantly lower | lower | CCN(CC)CCNC(=O)c1c(C)[nH]c(/C=C2\C(=O)Nc3ccc(F)cc32)c1C [sunitinib] | – | Significantly higher | onset of hypertrophy | caused cardiac hypertrophy | 15 to 25 | significantly higher | lower; also recorded: gradual decrease | left-ventricular distention | greater LV distension | lower; also recorded: time-dependent loss | significantly greater
